{"source": "patent US6875786B2", "about": "“Thrombopoietin mimetics” (SmithKline Beecham Corporation, priority 2001, dated 2005)", "test_system": "32D-mpl cells", "test": "proliferation of 32D-mpl cells", "format": "cell-based", "protocol": "The compound of Example 1, promoted the proliferation of 32D-mpl cells at a concentration of 0.03 to 30 uM.", "data": [{"smiles": "CC1=NN(c2ccc(C)c(C)c2)C(=O)C1=CNc1cccc(-c2cccc(C(=O)O)c2)c1O", "note": "[Example 1, 3′-{[1-(3.4-Dimethylphenyl)-3-methyl-5-oxo-1,5-dihydropyrazol-4-ylidenemethyl]amino}-2′-hydroxybiphenyl-3-carboxylic Acid]", "values": [{"measurement": "EC50", "result": 670, "unit": "nM"}, {"measurement": "% TPOmax", "setting": "relative to TPO maximum", "result": 85, "unit": "%"}]}]}
